Assay results taken from patent US10351598B2, “Peptide with anti-obesity and anti-diabetic efficacy and use thereof” (CAREGEN CO., LTD., priority 2016, dated 2019).
Where “and” joins values, the source holds several entries; their conditions need not be identical. Equal entries are not always repeated.

What was measured:
[1] = system: C57BL/6J mice fed with a high-fat diet; assay: Anti-diabetic efficacy evaluation (in vivo), blood glucose after oral glucose; parameters: blood glucose, individual animal / blood glucose, Mean: unit not given here; conditions: for blood glucose, Mean / blood glucose, individual animal: 60% fat diet mice; for blood glucose increase by glucose: high-fat diet mice, compared with the NC group
Source text: 6-week-old C57BL/6J mice as experimental animals were purchased from Central Lab. Animal Inc. (Seoul, Korea), and then were used for experiments after acclimatization with a normal diet for 1 week. A high-fat feed was used from Research Diets, inc. (#product D12492).
The experimental animals were divided into a total of four groups, and three mice for each group were raised for 12 weeks.
In addition, the experimental animals were divided into a total of […], and three mice for each group were raised for 12 weeks.
After the pre-treatment with a peptide for 30 minutes, glucose (60 mg/300 ul distilled water) were orally administered, and then the blood glucose lowering effect over time was examined. The results are shown in FIGS. 6a to 6b and tables 5 and 6.

AMPK-α1 = AMPK-α1 RT-PCR in insulin resistance conditions (TNF-α); format: cell-based; conditions: reduced by TNF-α treatment, peptide treatment 16 hours
Protocol: (§1) Total RNA was extracted using Qiagen RNeasy kit. For synthesis of single-stranded DNA from RNA, […] of RNA, […] of random hexamer, and DEPC-treated water were added, followed by reaction for 5 minutes at 65° C. 5× first strand buffer, 0.1 M DTT, 10 mM of dNTP, and reverse transcriptase were added to reach a total volume of […], followed by reaction at 42° C. for 1 hour. After heating at 95° C. for 5 minutes again, 10 ml of distilled water was added to make a final volume, […], of cDNA.
(§2) PCR was conducted by mixing 3 ml of cDNA, 10 pmole of CGI 58 gene-specific primer, 10× Tag buffer, 10 mM dNTP, and i-Tag DNA synthetase. PCR conditions were: 94° C. for 30 seconds, 55-56° C. for 30 seconds, and 72° C. for 30 seconds. Cycle number genes were analyzed in the conditions in which the PCR results could be exponentially amplified. 5 ml of PCR product was obtained, electrophoresed on 1% agarose gel, and stained with ethidium bromide.
(§3) After the insulin resistance conditions were configured by TNF-α treatment, the peptide treatment was conducted for 16 hours, followed by collection and then the resultant product was collected and the changes of respective factors were examined by RT-PCR. RT-PCR conditions are the same as in example 3.

CGI-58 = CGI-58 RT-PCR; format: cell-based; conditions: intracellular
Protocol: as §1, §2

GLUT4 = GLUT4 RT-PCR in insulin resistance conditions (TNF-α); format: cell-based; conditions: reduced by TNF-α treatment, peptide treatment 16 hours
Protocol: as §1, §2, §3

pHSL = assay: Immunohistochemical staining with anti-pHSL antibody (lipolysis induction); format: cell-based; conditions: mouse adipose tissue, 48-72 hours
Source text: In order to investigate a mechanism by which the peptides of the present invention stimulate the lysis of triglycerides to suppress the lipid accumulation in adipocytes, the effect of the peptides of the present invention on HSL gene expression was examined. HSL enzyme is known as a lipolytic enzyme that breaks down triglycerides into free fatty acids and glycerols when the HSL enzyme breaks down lipids in the adipose tissue.
The mouse adipose tissue was taken and cultured in 100-mm dish (DMEM) for one day. Thereafter, the adipose tissue was cut into equal weight, transferred onto 24-well plate, treated with the peptides, and cultured for 48-72 hours. Each tissue slice was subjected to immunohistochemical staining using anti-pHSL antibody, and photographed by a fluorescent microscope.

mouse adipose tissue [2] = assay: Glycerol assay (lipolysis induction); format: cell-based; conditions: compared with control group NC; for secretion of glycerol: mouse adipose tissue, cultured 48-72 hours with peptide
Source text: Adipocytes store extra energy in the form of triglycerides in lipid droplets, and when energy is needed, the triglycerides are broken down into fatty acids and glycerols by enzymes, such as adipose triglyceride lipase, HSL, and monoglyceride lipase, to produce energy, or the triglycerides are used in cell signaling or lipid synthesis. The measurement of free glycerol release is for evaluating the lytic effect of the glycerides accumulated in fact cells.
In order to measure the lipolytic effect by the peptides of the present invention, the mouse adipose tissue was taken and cultured in 100-mm dish (DMEM) for one day. Thereafter, the adipose tissue was cut into equal weight, transferred onto 24-well plate, treated with the peptides, and cultured for 48-72 hours. Each 100 ul of the medium was collected according to the treatment period, and subjected to glycerol assay.

adiponectin = assay: Adiponectin RT-PCR in insulin resistance conditions (TNF-α); format: cell-based; conditions: reduced by TNF-α treatment, peptide treatment 16 hours
Protocol: as §1, §2, §3

3T3-L1 cells = assay: Oil red O staining (lipid accumulation inhibition); format: cell-based; conditions: day 9 of differentiation induction
Protocol: In order to measure the lipid accumulation inhibitory effect by the peptides of the present invention, 3T3-L1 cells were seeded in 24-well plate at 2×10^4 cells/well, followed by culture, and then the medium was exchanged with a differentiation medium containing 10 ug/ml insulin, 0.1 uM dexamethasone, and 0.5 uM IBMX, followed by treatment with the peptides having different concentrations.
Thereafter, the medium was exchanged into a medium containing 10 ug/ml insulin every two days, and on day 9 of differentiation induction, an oil-red-red O staining assay was conducted.
The cells were washed with PBS, immobilized by the treatment with 4% para-form aldehyde for 10 minutes, washed with distilled water, and then cultured in 60% isopropanol for 5-10 minutes. The immobilized cells were stained with an oil red solution [1% Oil Red in isopropanol was diluted in dH2O in ratio of 6:4 (vol/vol)] for 30 minutes, and then again washed with PBS. The stained cells were observed by an optical microscope, followed by washing with distilled water, and 1 ml of 100% isopropanol was added thereto, followed by stirring at 4° C. The next day, quantification was conducted at 510 nm.

IRS-1 = IRS-1 RT-PCR in insulin resistance conditions (TNF-α); format: cell-based; conditions: reduced by TNF-α treatment, peptide treatment 16 hours
Protocol: as §1, §2, §3

mouse adipose tissue [3] = assay: Histological analysis, H&E staining (lipolysis induction); format: cell-based; conditions: as the concentration of the peptide increased
Protocol: The mouse adipose tissue was taken and cultured in 100-mm dish (DMEM) for one day. Thereafter, the adipose tissue was cut into equal weight, transferred onto 24-well plate, treated with the peptides, and cultured for 48-72 hours. Each tissue slice was subjected to H&E staining. The photo files obtained from microscopic photographing were divided into compartments through Image J, and analyzed using a program that can compare the sizes of each compartment. Through this, the area of the total number of cells can be obtained, and the average area obtained by dividing the area by the total number of cells can also be obtained. The results may be expressed differently depending on the degree of staining. However, correction can be made by adjusting the threshold value in the beginning, and the results were obtained after the cells with relatively small areas from the comparison with the original file were removed.

[4] = 0 min, IP 2 mg/ml 300 ul, Table 6
[5] = 0 min, oral 2 mg/ml 300 ul, Table 6
[6] = 10 min, IP 2 mg/ml 300 ul, Table 6
[7] = 10 min, oral 2 mg/ml 300 ul, Table 6
[8] = 40 min, IP 2 mg/ml 300 ul, Table 6
[9] = 40 min, oral 2 mg/ml 300 ul, Table 6
[10] = 80 min, IP 2 mg/ml 300 ul, Table 6
[11] = 80 min, oral 2 mg/ml 300 ul, Table 6
[12] = 140 min, IP 2 mg/ml 300 ul, Table 6
[13] = 140 min, oral 2 mg/ml 300 ul, Table 6
[14] = 200 min, IP 2 mg/ml 300 ul, Table 6
[15] = 200 min, oral 2 mg/ml 300 ul, Table 6
[16] = 0 min, oral 2 mg/ml 300 ul, Table 5
[17] = 30 min, oral 2 mg/ml 300 ul, Table 5
[18] = 60 min, oral 2 mg/ml 300 ul, Table 5
[19] = 90 min, oral 2 mg/ml 300 ul, Table 5
[20] = 120 min, oral 2 mg/ml 300 ul, Table 5

His-Glu-Thr-Phe-Glu (HETFE) [SEQ ID NO: 2]
blood glucose, Mean [1, 4]: 155.00
blood glucose, individual animal [1, 4]: 145.00 and 165.00
blood glucose, Mean [1, 5]: 162
blood glucose, individual animal [1, 5]: 159.00 and 165.00
blood glucose, Mean [1, 6]: 197.00
blood glucose, individual animal [1, 6]: 203.00 and 190.00
blood glucose, Mean [1, 7]: 191
blood glucose, individual animal [1, 7]: 188.00 and 193.00
blood glucose, Mean [1, 8]: 179.00
blood glucose, individual animal [1, 8]: 162.00 and 195.00
blood glucose, Mean [1, 9]: 161
blood glucose, individual animal [1, 9]: 164.00 and 157.00
blood glucose, Mean [1, 10]: 164.00
blood glucose, individual animal [1, 10]: 170.00 and 158.00
blood glucose, Mean [1, 11]: 155
blood glucose, individual animal [1, 11]: 163.00 and 147.00
blood glucose, Mean [1, 12]: 123.00
blood glucose, individual animal [1, 12]: 130.00 and 115.00
blood glucose, Mean [1, 13]: 129
blood glucose, individual animal [1, 13]: 122.00 and 135.00
blood glucose, Mean [1, 14]: 112.00
blood glucose, individual animal [1, 14]: 129.00 and 94.00
blood glucose, Mean [1, 15]: 122
blood glucose, individual animal [1, 15]: 118.00 and 126.00
blood glucose increase by glucose [1]: reduced
expression of AMPK-α1 (AMPK-α1): again increased
expression of the lipolysis factor CGI-58 (CGI-58): increased
expression of the glucose transporter GLUT4 (GLUT4): again increased
expression of hormone sensitive lipase (pHSL) (pHSL): increased
increase of secretion of glycerol (mouse adipose tissue [2]; high-concentration peptide treatment): 22%
secretion of glycerol (mouse adipose tissue [2]): increased
expression of adiponectin (adiponectin): again increased
degree of lipid accumulation in the cells (3T3-L1 cells): reduced

Lys-Glu-Arg-Lys-Ser (KERKS) [SEQ ID NO: 1]
blood glucose, Mean [1, 16]: 134.67
blood glucose, individual animal [1, 16]: 145.00 and 165.00
blood glucose, Mean [1, 17]: 163.67
blood glucose, individual animal [1, 17]: 203.00 and 190.00
blood glucose, Mean [1, 18]: 142.00
blood glucose, individual animal [1, 18]: 162.00 and 195.00
blood glucose, Mean [1, 19]: 142.67
blood glucose, individual animal [1, 19]: 170.00 and 158.00
blood glucose, Mean [1, 20]: 125.67
blood glucose, individual animal [1, 20]: 130.00 and 115.00
blood glucose increase by glucose [1]: reduced
expression of the insulin receptor signaling protein IRS-1 (IRS-1): again increased
lipid area (mouse adipose tissue [3]): reduced
number of adipocytes (mouse adipose tissue [3]): increased
expression of AMPK-α1 (AMPK-α1): again increased
expression of the lipolysis factor CGI-58 (CGI-58): increased
expression of the glucose transporter GLUT4 (GLUT4): again increased
expression of hormone sensitive lipase (pHSL) (pHSL): increased
secretion of glycerol (mouse adipose tissue [2]): increased
expression of adiponectin (adiponectin): again increased
degree of lipid accumulation in the cells (3T3-L1 cells): reduced
